Experiments:
Format in all cases: cell-based, human
Cyclin A = assay: Western blot, cyclin A in HCT-116 cells; settings: HCT-116, 5, 10 and 15 μM, 24 h, concentration-dependent
Experimental: (§1) HCT-116 cells were cultured with different concentrations of compound 5d for 24 h. Then, the floating cells was collected and washed two times with ice cold PBS. The pellet was resuspended in lysis buffer. After the cells were lysed on ice for 20 min, lysates were centrifuged at 12,000 rpm at 4 °C for 15 min. The protein concentration in the supernatant was determined using BCA protein assay reagents. Equal amounts of protein (50 μg) were resolved using sodium dodecyl sulphate-polyacrylamide gel electrophoresis (SDS-PAGE) (8−12% acrylamide gels) and transferred to a PVDF Hybond-P membrane. Membranes were blocked with PBS containing 5% non-fat milk for 1 h at room temperature. Membranes were then incubated with primary antibodies against Cyclin A (ENT1167, Elabscience, Wuhan, China), Cyclin E1 (ENT1176, Elabscience, Wuhan, China), Cyclin B1 (ENT1169, Elabscience, Wuhan, China) and β-actin (ENM0028, Elabscience, Wuhan, China), with gentle rotation overnight at 4 °C. Membranes were next incubated with fluorescent secondary antibodies for 2 h. Proteins were detected by electrochemiluminescence (Bio-Rad, Hercules, CA, USA).

Cyclin B1 = assay: Western blot, cyclin B1 in HCT-116 cells; settings: HCT-116, 5, 10 and 15 μM, 24 h, concentration-dependent
Experimental: as §1

HCT-116 cells = assay: MTT antiproliferative assay, HCT-116
Outline: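 Cells seeded at 9 × 10^3 per well, allowed 24 h to adhere, then exposed 48 h to compound at 1, 10, 50 and 100 µM. MTT added to 2 mg/mL for 4 h, formazan dissolved in DMSO, OD read at 492 nm; inhibition calculated relative to untreated and blank wells.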

Cyclin E1 = assay: Western blot, cyclin E1 in HCT-116 cells; settings: HCT-116, 5, 10 and 15 μM, 24 h, concentration-dependent
Experimental: as §1

SMILES: Cc1ccc(-n2cc(CNC(=O)COC(=O)[C@]3(C)CCC[C@@]4(C)[C@@H]5CC[C@@]6(C)C[C@]5(CC[C@@H]43)CC6=O)nn2)cc1 [Compound 5d, 2-oxo-2-(((1-(p-tolyl)-1H-1,2,3-triazol-4-yl)methyl)amino)ethyl(4R,4aS,6aR,9S,11aR,11bS)-4,9,11b-trimethyl-8-oxotetradecahydro-6a,9-methanocyclohepta[a]naphthalene-4-carboxylate]
- cyclin A protein level (Cyclin A): decreased
- cyclin B1 protein level (Cyclin B1): increasing
- inhibition at 100 µM (HCT-116 cells; Homo sapiens, HCT-116, 100 μM, 48 h, MTT, mean ± SD, n=3, read-out: % Growth Inhibition at 100 μM HCT-116): 84.6 ± 0.96%
- IC50 (HCT-116 cells; Homo sapiens, HCT-116, 48 h, MTT, mean ± SD, n=3): 5.38 ± 0.26 µM
- Selectivity Index HCT-116 (HCT-116 cells; IC50 on normal cells (L02)/IC50 on cancer cells): 29.93
- fold more active than 5-FU (HCT-116 cells; against HCT-116 cells): 4.6 fold
- cyclin E1 protein level (Cyclin E1): decreased

From paper PMC6337650 (Molecules, 2018)
